Where only a bound is given, the exact number is not on record here.

The series is described as follows: physchem. The conditions noted are these: for solubility at 30 min: 22.5 °C, thermodynamic from solid. How it is done:
According to the method disclosed in the Pharmacopoeia of Japan, the solubility (μg/ml) of Compound 1 was measured when treated for 30 minutes under the following conditions. • (1) Conditions for measurement of solubility:
Solvent: Diluted McIlvaine buffer

With `Cl.O=C1[C@@H]2[C@H]3CC[C@H](C3)[C@@H]2C(=O)N1C[C@@H]1CCCC[C@H]1CN1CCN(c2nsc3ccccc23)CC1` [Compound 1, N-[4-[4-(1,2-benzisothiazol-3-yl)-1-piperazinyl]-(2R, 3R)-2,3-tetramethylenebutyl]-(1′R, 2′S, 3′R, 4′S)-2,3-bicyclo[2.2.1]heptanedicarboximide hydrochloride], the “solubility of Compound 1 (in words)” value is “quite low”. This compound registered a solubility at 30 min (pH 3, aqueous buffer) above 20 µg/mL. Where the note is “pH 4, aqueous buffer”, this compound yielded a solubility at 30 min of 8.2 µg/mL. For the same compound, the solubility at 30 min (pH 5, aqueous buffer) worked out at 0.7 µg/mL.

For the origin of these results see US7727553B2, “Oral preparations with favorable disintegration characteristics” (Dainippon Sumitomo Pharma Co., Ltd., priority 2000, dated 2010).
